The values below come from US8372830B2, “Methods for using vasopressin antagonists with anthracycline chemotherapy agents to reduce cardiotoxicity and/or improve survival” (Otsuka Pharmaceutical Co., Ltd., priority 2007, dated 2013).

One data set deals with doxorubicin-treated rats. The settings on record: antagonist given several weeks after doxorubicin, previous study (ref. 25); cited from earlier work.
The subject of data set [1] is doxorubicin-induced mortality. Put plainly: DDAVP infusion and doxorubicin-induced mortality (Example 2). The settings on record: DDAVP 1 ng/h s.c. infusion 14 days + doxorubicin 6 x 2.5 mg/kg i.p.; vs doxorubicin alone; p<0.001 Log-Rank; FIG. 4. In kind it is in vivo, rat. How it is done: The present inventors investigated whether activation of V2 receptors can accelerate doxorubicin-induced mortality. A continuous subcutaneous infusion of 1 ng/h of DDAVP (deamino-Cyst, D-Arg-vasopressin) per animal was accomplished using an osmotic minipump (infusion rate: 0.5 μL/h, ALZET model 2002, DURECT Corporation, Cupertino, Calif.) for 14 days. On day 0 an osmotic minipump was implanted subcutaneously. The sham control rats had the same surgical procedure but with only saline in the minipump. The rats were then divided into two groups: one with six intraperitoneal injections of doxorubicin (2.5 mg/kg) during a 13 day period, and one with injections of saline. The rats were fed with liquid food throughout the experiment. With the continuous infusion of DDAVP, liquid food feeding increases systemic volume overload and edema, conditions often observed in CHF patients.

The test system of data set [2] is doxorubicin toxicity under elevated vasopressin condition. As for the experimental part:
This condition may be relevant to certain cancer patients who have elevated vasopressin release and are undergoing chemotherapy, such as with doxorubicin.
Two groups of rats were studied and the protocol is described in FIG. 13. Rats were intravenously injected with doxorubicin (3 mg/kg) 3 times once every other day for a total of 9 mg/kg (same as described in Example 4). One group (Dox+DDAVP) was given vehicle and the other group (Dox+DDAVP+Tol) was administered tolvaptan (10 mg/kg) once daily. An osmotic minipump (infusion rate: 0.15 μl/h, ALZET model 2006, ALZA Corporation) was implanted in each rat for continuous subcutaneous infusion of 1 ng/h of DDAVP (a vasopressin V2 agonist [deamino-Cys1, D-Arg8]-vasopressin).

In data set [3] the test system is left ventricle. Put plainly: Echocardiography of cardiac function, rat model with intravenous injection of doxorubicin (Example 4). In kind it is in vivo. How it is done: In a clinical setting, doxorubicin is administered intravenously to cancer patients. Furthermore, the major side effect associated with doxorubicin treatment is cardiac dysfunction and development of CHF. Therefore, the effect of tolvaptan on CHF was evaluated in a rat model with intravenous injection of doxorubicin. Cardiac function was determined using high resolution ultrasonograpy. Rats were divided into 3 groups as described in Table 2, and observed for 10 weeks. [table] Control rats were not treated. […] Rats were given either vehicle or tolvaptan (10 mg/kg) daily starting on the first day of doxorubicin injection. On the days with co-administration of doxorubicin and tolvaptan, tolvaptan was given by oral gavage 45 min prior to the intravenous injection of doxorubicin. Cardiac function was evaluated using echocardiography (Vevo 770, Visualsonics Inc, Toronto, Canada). Echo images were taken once a week for 10 consecutive weeks. Rats were anesthetized with Isoflurane and parasternal long and short axis echo images were recorded. Offline analysis of cardiac function (ejection fraction and fraction shortening) and anatomic data of the heart (LV end diastolic diameter and volume) were performed. At the end of the 10-week period, cardiac contractility (LVdp/dtmax/ip) was measured invasively.

The test system of data set [4] is doxorubicin-induced cardiac toxicity and animal death. Description: Survival of rats given repeated intraperitoneal injections of doxorubicin (Example 1). It is filed as in vivo, rat. The settings on record: tolvaptan 10 mg/kg orally daily. How it is done:
Repeated injection of doxorubicin in animals is known to cause cardiac injury and to increase mortality. A study was designed to investigate the effect of tolvaptan on doxorubicin-induced cardiac toxicity and animal death. Four groups of rats were evaluated; all with 6 injections of doxorubicin (2.5 mg/kg each) during a two week period. To test the ability of tolvaptan to prevent toxicity, tolvaptan (10 mg/kg orally) daily was given to one group of rats (Tol+Dox). Another group of rats was given vehicle only (Veh+Dox). To test the ability of tolvaptan to reverse the toxicity, tolvaptan (10 mg/kg orally) daily was given to one group of rats, starting after the completion of doxorubicin administration (Dox+Tol). Another group of rats was given vehicle only (Dox+Veh). Table 1 summarizes the group designations:
Survival was analyzed using Kaplan-Meier survival analysis with the Log-Rank test.

The nature of data set [5]: Plasma concentration of doxorubicin with vehicle or tolvaptan (Example 3). In kind it is in vivo, rat. The settings on record: after first (day 1) and sixth (day 13) doxorubicin injection; tolvaptan vs vehicle; FIG. 6. How it is done: (§1) To determine whether tolvaptan affects the plasma concentration of doxorubicin, plasma samples were obtained after the first (day 1) and sixth (day 13) injection of doxorubicin with vehicle or tolvaptan, and the plasma concentration of doxorubicin was measured.

Data set [6] deals with total white blood cell (WBC) and lymphocyte (LY) counts. Description: Myelosuppression: blood cell counts after doxorubicin (Example 3). As for the experimental part:
as §1
Anthracyclines including doxorubicin are known to cause myelosuppression due to their ability to intercalate into DNA, and to inhibit new protein synthesis and cell proliferation in the bone marrow (similar mechanisms are involved in the inhibition of cancer cell proliferation). Myelosuppression was used as an index of the ability of doxorubicin to inhibit cell proliferation and anti-cancer effect. […] Blood samples were taken after 1 or 13 days of treatment with doxorubicin.

For data set [7], the system named is left ventricle. Description: Invasive hemodynamic measurement of cardiac contractility at end of 10 weeks (Example 4). In kind it is in vivo, rat. The settings on record: tolvaptan-treated vs vehicle-treated doxorubicin rats, FIG. 12.
Experimental: Control rats were not treated. For groups 2 and 3 with doxorubicin treatment, rats were given three injections intravenously of doxorubicin (3 mg/kg each) every other day (total dose of 9 mg/kg). […] Rats were given either vehicle or tolvaptan (10 mg/kg) daily starting on the first day of doxorubicin injection. On the days with co-administration of doxorubicin and tolvaptan, tolvaptan was given by oral gavage 45 min prior to the intravenous injection of doxorubicin.
Invasive hemodynamic measurements were performed at the end of the 10 week period.
Setting [8] is: thirteen-day treatment with doxorubicin, FIG. 7.

Regarding `Cc1ccccc1C(=O)Nc1ccc(C(=O)N2CCCC(N(C)C)c3ccccc32)cc1` (centres unmarked) [OPC-31260], in the data set with doxorubicin-treated rats, the mortality rate entry is recorded as “slight but not significant reduction”.

In the case of `NC(=O)CC[C@@H]1NC(=O)[C@H](Cc2ccccc2)NC(=O)[C@H](Cc2ccc(O)cc2)NC(=O)CCSSC[C@@H](C(=O)N2CCC[C@H]2C(=O)N[C@H](CCCN=C(N)N)C(=O)NCC(N)=O)NC(=O)[C@H](CC(N)=O)NC1=O` [DDAVP, [deamino-Cys1, D-Arg8]-vasopressin], the “death rate from doxorubicin” value in data set [1] is on record as “significantly accelerated”. For the same compound, the “toxicity of doxorubicin under DDAVP infusion” value in data set [2] (DDAVP 1 ng/h s.c. infusion + doxorubicin 3 x 3 mg/kg i.v., FIG. 14) was “very toxic”. In addition, in data set [2] (DDAVP 1 ng/h s.c. infusion + doxorubicin 3 x 3 mg/kg i.v., vehicle), the “time in which rats died” value is 2 weeks.

Turning to `Cc1ccccc1C(=O)Nc1ccc(C(=O)N2CCCC(O)c3cc(Cl)ccc32)c(C)c1` (centres unmarked) [tolvaptan, 7-chloro-5-hydroxy-1-[2-methyl-4-(2-methylbenzoyl-amino)benzoyl]-2,3,4,5-tetrahydro-1H-benzazepine], the “cardiac function (fractional shortening, ejection fraction)” value in the data set with left ventricle [3] (tolvaptan 10 mg/kg orally daily from first day of doxorubicin, vs vehicle, FIGS. 8 and 9) is recorded as “significantly improved”. For the same compound, the “remodeling process of the left ventricle” value in the data set on left ventricle [3] (tolvaptan 10 mg/kg orally daily with doxorubicin, FIGS. 10 and 11) is listed as “slowed”. In data set [4] (initiated after completion of 6 doxorubicin injections, 5 rats per group, FIG. 2), the “delay of rat death” value is on record as “only a small delay”. For the same compound, the “protective effect on mortality” value in data set [4] (initiated after completion of 6 doxorubicin injections, FIG. 2) was “largely lost”. In addition, the “mortality rate (Kaplan-Meier survival analysis, Log-Rank test)” value in data set [4] (starting with first doxorubicin injection (6 x 2.5 mg/kg i.p.), 12 weeks, vs vehicle, p<0.001, FIG. 1) is recorded as “significantly reduced”. Moreover, in data set [5], the “effect on plasma concentration of doxorubicin” value is listed as “did not affect”. In addition, the “effect on the myelosuppressive effect of doxorubicin” value in data set [6] (rat, in vivo) is recorded as “did not affect”. Also, the “contractility index (LVdp/dtmax normalized to instantaneous LV pressure)” value with left ventricle [7] is given as “higher”. The “survival (Kaplan-Meier)” value in data set [2] (tolvaptan 10 mg/kg once daily, Dox+DDAVP+Tol vs Dox+DDAVP, FIG. 14) is on record as “significantly improved”.

`COc1cccc2c1C(=O)c1c(O)c3c(c(O)c1C2=O)C[C@@](O)(C(=O)CO)C[C@@H]3O[C@H]1C[C@H](N)[C@H](O)[C@H](C)O1` [doxorubicin]: in the data set on left ventricle [3] (doxorubicin 3 x 3 mg/kg i.v. every other day, weekly echo for 10 weeks, FIG. 8), the “fractional shortening of the left ventricle” value is on record as “progressively decreased”. Also, the “ejection fraction of the left ventricle” value in the data set with left ventricle [3] (doxorubicin 3 x 3 mg/kg i.v. every other day, weekly echo for 10 weeks, FIG. 9) is listed as “progressively decreased”. Also, in the data set with left ventricle [3] (doxorubicin 3 x 3 mg/kg i.v., weight adjusted, FIG. 10), the “left ventricle diastolic volume” value is reported as “progressively increased”. Further, the “left ventricle diastolic diameter” value in the data set with left ventricle [3] (doxorubicin 3 x 3 mg/kg i.v., weight adjusted, FIG. 11) is recorded as “progressively increased”. Besides, the blood cell counts entry in data set [6] (one day treatment with doxorubicin) is given as “did not affect”. For the same compound, in data set [6] (setting [8]), the “lymphocyte (LY) count” value is listed as “significantly reduced” and the “total white blood cell (WBC) count” value is reported as “significantly reduced”.
